Like-named read-outs stand apart in the source and are kept apart here.
What was measured:
[1] = tested on: L. donovani promastigotes (MHOM/NP/02/BPK282/0cl4); test: Promastigote growth inhibition assay (alamarBlue); format: cell-based, Leishmania donovani; settings: for IC50: Leishmania donovani, 72 h, alamarBlue, HOMEM 20% FBS, compounds as racemates, read-out: IC50 (concentration causing 50% growth inhibition) against promastigotes of L. donovani; for Selectivity index (SI) = CC50/IC50: Vero CC50 / IC50 on promastigotes
Experimental: The bioactivity of the new tetrahydropyrans 3 was initially evaluated against the extracellular promastigote forms of L. donovani (MHOM/NP/02/BPK282/0cl4) as the reference strain, indicative of the leishmaniasis in the Old World. The results were expressed as IC50, i.e., the concentration of the product required to inhibit the parasite growth by 50%. When a compound could inhibit the promastigote growth, its cytotoxicity was also evaluated on Vero cells (Table 1) and on THP-1 cells (see the Supporting Information, Table S3) and the corresponding selectivity indexes (SIs) were calculated. The performance of each tetrahydropyran 3 was compared with that of the corresponding endoperoxide 2 (Table 1).
Promastigotes of a L. donovani reference strain (MHOM/NP/02/BPK282/0cl4) were maintained at 26 °C in a liquid custom-made medium, HOMEM Cat. no: 1140-082 (Gibco Thermo Fisher Scientific Inc., Waltham, USA), complete composition: S-MEM (Eagle) 1 × 1 liter pack, glucose (1–2 g), sodium bicarbonate (0.3 g), sodium pyruvate (0.11 g), p-aminobenzoic acid (1 mg), biotin (0.1 mg), HEPES (4.77–5.96 g), MEM amino acids (10 mL), MEM nonessential amino acids (10 mL), pH 7.5–7.6, supplemented with 20% fetal bovine serum (FBS, EuroClone SpA, Milan, Italy)[123] and 1% penicillin–streptomycin (EuroClone SpA).
To evaluate the efficacy of the compounds on the extracellular forms of L. donovani, promastigotes in their late log/stationary phase were seeded with the complete HOMEM medium at 10^6 cells mL^–1 in 96-well plates and incubated with tested compounds at a range concentration of 600–1.6 μM in a 26 °C incubator for 72 h. The antileishmanial drug amphotericin B was used as the positive control, and untreated promastigotes were the negative control. Each experiment was performed in duplicate. Stock solution of the compounds was 8 mM in DMSO. […] The alamarBlue assay includes a colorimetric growth indicator based on detection of metabolic activity. Specifically, the system incorporates an oxidation–reduction (REDOX) indicator that changes color in response to chemical reduction of the growth medium resulting from cell growth. The method monitors the reducing environment of proliferating cells; the cell-permeable resazurin is added (nonfluorescent form, blue color) and, upon entering cells, is reduced to resorufin (fluorescent form, red color) as a result of cellular metabolic activity. Evaluation was performed by adding 20 μL of alamarBlue and incubating at 26 °C for 24 h. The reducing environment was evaluated after 24 h by absorbance measurement at the Multiskan ascent plate reader (Thermo Fisher Scientific Inc.) at 550 and 630 nm.

[2] = tested on: intramacrophage amastigotes of L. donovani; test: Amastigote growth inhibition assay in infected THP-1 cells (Giemsa, infectivity index); format: cell-based, Leishmania donovani; settings: for IC50: Leishmania donovani, intracellular amastigotes in THP-1, 72 h, read-out: IC50 against amastigotes of L. donovani
Experimental: To evaluate the efficacy of the compounds on the intracellular form of L. donovani, human acute monocytic leukemia cell line (THP-1) was infected with L. donovani promastigotes. Cells were harvested and seeded in a 96-well plate (10^5 cells mL^–1) in the complete RPMI 1640 medium, and PMA (0.1 μM, Cayman Chemical Company, Ann Arbor, Michigan, USA) was added for obtaining maturation and cell adherence. Cells were incubated at 37 °C in a 5% CO2 incubator. After 48 h, the medium was replaced with the fresh medium containing stationary-phase promastigotes that were then phagocyted by monocytic cells and transformed into intracellular amastigotes. After 24 h of incubation, newly synthesized compounds were added and the plates were incubated at 37 °C in a 5% CO2 incubator for 72 h. After incubation, wells were washed, fixed, and stained with Giemsa. Staining was detected using a Nikon Eclipse E200 light microscope (Nikon, Tokyo, Japan). The infectivity index (% of infected macrophages × average number of amastigotes per macrophage) was determined by counting at least 100 cells in duplicate cultures.

[3] = tested on: L. donovani promastigotes; test: Promastigote growth inhibition in the presence of an iron chelator (DFO or DFP), isobologram; format: cell-based, Leishmania donovani; settings: for Interaction with the iron chelator DFP (isobologram, FIC): FIC values > 0.5 and < 4; for IC50: Leishmania donovani, no DFO, read-out: IC50 against promastigotes, absence of DFO; for Interaction with the iron chelator DFO (isobologram, ΣFIC): synergism <0.5, antagonism >4.0, else additivity
Experimental: At first, we determined IC50 and CC50 values of the iron chelator DFO (187 and >400 μM, respectively). Then, the effect of the iron chelator presence on the bioactivity of the two compounds was studied by coincubating 2a and 3a with DFO at different concentrations. The variation of IC50 of the compounds in relation to the different doses of DFO was determined by the alamarBlue assay (Table 3), and the isobole technique was employed to depict the interactions of 2a and 3a with DFO (Figure 6).
The isobole technique was used for depicting synergistic or antagonistic interaction between the iron chelator and the two compounds on the parasite growth (Figure 6). Combinations are expressed as the sum of the fractional inhibitory concentrations (ΣFIC), and FIC values are defined as synergism (<0.5), antagonism (>4.0), and additivity (no interaction). The strength of synergism (or antagonism) is indicated by the degree of deviation from the line of additivity.
[…]. Each compound was added using a concentration range including the IC50 of each compound. Each experiment was performed in duplicate. The viability of the parasites was determined by the alamarBlue assay. The fractional inhibitory concentration (FIC; FIC = IC50 of the drug in the combination/IC50 of the drug when tested alone) of each compound was calculated and plotted as an isobologram.

[4] = tested on: L. donovani promastigotes (MHOM/NP/02/BPK282/0cl4); test: Promastigote growth inhibition assay (alamarBlue); format: cell-based; settings: Leishmania donovani, HOMEM with 10% FBS
[5] = THP-1 CC50 / IC50 on amastigotes
[6] = Vero CC50 / IC50 on amastigotes

Compound: CCCCC1(CCCC)CO[C@@](C)(OC)[C@@H](CNCCCn2ccnc2)C1 (racemic) [3a, N-((5,5-Dibutyl-2-methoxy-2-methyltetrahydro-2H-pyran-3-yl)methyl)-3-(1H-imidazol-1-yl)propan-1-amine]
- IC50 [1]: 3.4 ± 0.4 µM
- Selectivity index (SI) = CC50/IC50 [1]: 10.4
- IC50 [2]: 3.4 ± 0.6 µM
- Selectivity index (SI) = CC50/IC50 [2, 5]: 7.6
- Selectivity index (SI) = CC50/IC50 [2, 6]: 10.3
- Interaction with the iron chelator DFP (isobologram, FIC) [3]: no antagonism or synergism
- IC50 [3]: 3.4 ± 0.4 µM
- Interaction with the iron chelator DFO (isobologram, ΣFIC) [3]: additive effects
- IC50 [4]: 1900 nM

Compound: CCCCC1(CCCC)C[C@H](CNCCCn2ccnc2)[C@](C)(OC)OO1 [2a]
- IC50 [1]: 7.5 ± 1.7 µM
- Selectivity index (SI) = CC50/IC50 [1]: 9.6
- IC50 [2]: 12.2 ± 1.2 µM
- Selectivity index (SI) = CC50/IC50 [2, 5]: 7.0
- Selectivity index (SI) = CC50/IC50 [2, 6]: 5.9
- Interaction with the iron chelator DFP (isobologram, FIC) [3]: no antagonism or synergism
- IC50 [3]: 7.5 ± 1.7 µM
- Interaction with the iron chelator DFO (isobologram, ΣFIC) [3]: additive effects
- IC50 [4]: 2700 nM
